Measurements as given in publication PMC9610702, “Synthesis, Characterization, and Biological Evaluation of Tetrahydropyrimidines: Dual-Activity and Mechanism of Action” (Pharmaceutics, 2022).
≈ marks a conversion by molar mass, not a printed value. Like-named read-outs stand apart in the source and are kept apart here.

Experiments:
Aspergillus niger = assay: antifungal MIC, broth tube dilution; assay type: cell-based
Source text: (§1) In this paper, the synthesis, characterization, and biological evaluation of the novel tetrahydropyrimidines—THPMs are described. THPMs are well-known for wide pharmacological activities such as antimicrobial, anticancer, antiviral, etc. This research includes obtained results of in vitro antimicrobial, anticancer, and α-glucosidase inhibitory activities of the eleven novel THPMs. An antibiotic assessment was done against five bacteria (two Gram-positive and three Gram-negative) and five fungi by determining the minimal inhibitory concentration (MIC), using the broth tube dilution method. […] The cytotoxic activity was performed on the tumor cell lines (HeLa, K562, and MDA-MB-231) and normal cells (MRC-5). The best antitumor activity was shown by compounds 4b and 4k against HeLa cell lines.
(§2) All materials and methods used for biological examination (antibacterial, antifungal, anticancer, and α-glucosidase inhibitory activities) and crystal structure determination are presented in the Supplementary Materials, File S1.

Aspergillus flavus = assay: antifungal MIC, broth tube dilution; assay type: cell-based
Source text: as §1, §2

Mucor mucedo = assay: antifungal MIC, broth tube dilution; assay type: cell-based
Source text: as §1, §2

Penicillium italicum = assay: antifungal MIC, broth tube dilution; assay type: cell-based
Source text: as §1, §2

[1] = test system: Trichophyton mentagrophytes; assay: antifungal MIC, broth tube dilution; assay type: cell-based
Source text: as §1, §2

[2] = test system: normal human lung fibroblasts MRC-5; assay: cytotoxic activity on normal cells; assay type: cell-based; details: MRC5, MRC-5 normal fibroblasts, three independent experiments in triplicate, read-out: IC50 Average ± SD
Source text: as §2
The cytotoxic activity of eleven novel compounds was examined against HeLa, K562, MDA-MB-231, and MRC-5.
The cytotoxic activity was examined against HeLa, K562, MDA-MB-231 cells, and normal human lung fibroblasts MRC-5. […] In addition, the effects of the 4k and 4b on the cell cycle were examined.

MDA-MB-231 cells = assay: cytotoxic activity; assay type: cell-based; details: three independent experiments in triplicate, read-out: IC50 Average ± SD
Source text: (§3) All materials and methods used for biological examination (antibacterial, antifungal, anticancer, and α-glucosidase inhibitory activities) and crystal structure determination are presented in the Supplementary Materials, File S1. The cytotoxic activity of eleven novel compounds was examined against HeLa, K562, MDA-MB-231, and MRC-5. The tested compounds exerted concentration-dependent cytotoxic effects on cell lines. […] Compared to compound 4j, 4k has a methyl group in para position of benzoyl fragment; so, probably this structural difference is responsible for better activity and selectivity of compound 4k on HeLa (43.63 ± 1.49 µM) and K562 (39.11 ± 2.90 µM).

HeLa cells = assay: cytotoxic activity; assay type: cell-based; details: HeLa, three independent experiments in triplicate; for IC50: read-out: IC50 Average ± SD
Source text: as §3

K562 cells = assay: cytotoxic activity; assay type: cell-based; details: K562, three independent experiments in triplicate, read-out: IC50 Average ± SD
Source text: as §3

Escherichia coli = assay: antibacterial MIC, broth tube dilution; assay type: cell-based
Source text: as §1, §2

Proteus mirabilis = assay: antibacterial MIC, broth tube dilution; assay type: cell-based; details: ND = not detected
Source text: as §1, §2

Staphylococcus aureus = assay: antibacterial MIC, broth tube dilution; assay type: cell-based
Source text: as §1, §2

Klebsiella oxytoca = assay: antibacterial MIC, broth tube dilution; assay type: cell-based
Source text: as §1, §2

Bacillus subtilis = assay: antibacterial MIC, broth tube dilution; assay type: cell-based
Source text: as §1, §2

α-glucosidase = α-glucosidase inhibitory activity; assay type: biochemical; details: average ± SD of two experiments
Source text: as §2

Structure (SMILES)	MIC (Aspergillus niger) [µg/mL]	MIC (Aspergillus flavus) [µg/mL]	MIC (Mucor mucedo) [µg/mL]	MIC (Penicillium italicum) [µg/mL]	MIC [1] [µg/mL]	IC50 [2] [µM]	IC50 (MDA-MB-231 cells; Homo sapiens) [µM]	IC50 Average ± SD (HeLa cells)	IC50 (HeLa cells; Homo sapiens) [µM]	IC50 (K562 cells; Homo sapiens) [µM]	MIC (Escherichia coli) [µg/mL]	MIC (Proteus mirabilis; read-out: MIC) [µg/mL]	MIC (Staphylococcus aureus) [µg/mL]	MIC (Klebsiella oxytoca) [µg/mL]	MIC (Bacillus subtilis) [µg/mL]	IC50 (α-glucosidase) [µM]	MIC (Proteus mirabilis)	IC50 (MDA-MB-231 cells) [µM]	IC50 (HeLa cells) [µM]	IC50 (K562 cells) [µM]
COC(=O)C1=C(C)N(C)C(=S)NC1c1cc(OC)c(O)c([N+](=O)[O-])c1 (stereo not shown) [4c]	810 (≈ 2.2 mM)	400 (≈ 1.09 mM)	1620 (≈ 4.41 mM)	1620 (≈ 4.41 mM)	400 (≈ 1.09 mM)	196 ± 5.89	> 200	very low cytotoxicity	> 200	180 ± 9.15	1620 (≈ 4.41 mM)	1620 (≈ 4.41 mM)	1620 (≈ 4.41 mM)	1620 (≈ 4.41 mM)	3250 (≈ 8.85 mM)					
COC(=O)C1=C(C)N(C)C(=S)NC1c1ccc(OC(C)=O)c(OC)c1 (stereo not shown) [4g]	1620 (≈ 4.45 mM)	1620 (≈ 4.45 mM)	1620 (≈ 4.45 mM)	1620 (≈ 4.45 mM)	400 (≈ 1.1 mM)	193 ± 9.59	> 200		197 ± 3.55	153 ± 2.58	1620 (≈ 4.45 mM)	810 (≈ 2.22 mM)	3250 (≈ 8.92 mM)	1620 (≈ 4.45 mM)	3250 (≈ 8.92 mM)	192 ± 5.95				
COC(=O)C1=C(C)N(C)C(=S)NC1c1ccc(OC(=O)c2ccccc2)c(OC)c1 (stereo not shown) [4j, methyl 4-(4′-benzoyloxy-3′-methoxyphenyl)-1,2,3,4-tetrahydro-1,6-dimethyl-2-thioxopyrimidine-5-carboxylate]	1620 (≈ 3.8 mM)	1620 (≈ 3.8 mM)	1620 (≈ 3.8 mM)	1620 (≈ 3.8 mM)	400 (≈ 0.938 mM)	104 ± 8.61	123 ± 2.19		78.1 ± 5.78	68 ± 6.53	3250 (≈ 7.62 mM)	1620 (≈ 3.8 mM)	3250 (≈ 7.62 mM)	3250 (≈ 7.62 mM)	3250 (≈ 7.62 mM)					
CCOc1cccc(C2NC(=S)N(C)C(C)=C2C(=O)OC)c1OC(C)=O (stereo not shown) [4h]	1620 (≈ 4.28 mM)	1620 (≈ 4.28 mM)	1620 (≈ 4.28 mM)	1620 (≈ 4.28 mM)	810 (≈ 2.14 mM)	77.8 ± 2.57	114 ± 12.9		121 ± 9.96	79.9 ± 6.73	3250 (≈ 8.59 mM)	3250 (≈ 8.59 mM)	3250 (≈ 8.59 mM)	3250 (≈ 8.59 mM)	3250 (≈ 8.59 mM)	933 ± 25.2				
OC(Cn1cncn1)(Cn1cncn1)c1ccc(F)cc1F [Fluconazole, reference compound]	500 (≈ 1.63 mM)	1000 (≈ 3.27 mM)	1000 (≈ 3.27 mM)	1000 (≈ 3.27 mM)	250 (≈ 0.816 mM)															
[H]/N=C(/N)N[C@H]1[C@H](O)[C@@H](O)[C@H](O[C@@H]2O[C@@H](C)[C@](O)(C=O)[C@H]2O[C@@H]2O[C@@H](CO)[C@H](O)[C@@H](O)[C@@H]2NC)[C@@H](N/C(N)=N\[H])[C@@H]1O [Streptomycin, reference compound]											62 (≈ 0.107 mM)	62 (≈ 0.107 mM)	31 (≈ 0.0533 mM)	8 (≈ 0.0138 mM)	16 (≈ 0.0275 mM)					
COC(=O)C1=C(C)N(C)C(=S)NC1c1ccc(OC(=O)C2CC2)c(OC)c1 (stereo not shown) [4f]	810 (≈ 2.07 mM)	1620 (≈ 4.15 mM)	1620 (≈ 4.15 mM)	1620 (≈ 4.15 mM)	200 (≈ 0.512 mM)	196 ± 5.54	161 ± 9.69		135 ± 9.32	123 ± 8.52	3250 (≈ 8.32 mM)	1620 (≈ 4.15 mM)	3250 (≈ 8.32 mM)	3250 (≈ 8.32 mM)	3250 (≈ 8.32 mM)	767.9 ± 5.91				
COC(=O)C1=C(C)N(C)C(=S)NC1c1cc(OC)c(OC(C)=O)c([N+](=O)[O-])c1 (stereo not shown) [4d]	1620 (≈ 3.96 mM)	1620 (≈ 3.96 mM)	1620 (≈ 3.96 mM)	1620 (≈ 3.96 mM)	400 (≈ 0.977 mM)	193 ± 10.3	> 200	very low cytotoxicity	> 200	165 ± 8.5	1620 (≈ 3.96 mM)	810 (≈ 1.98 mM)	810 (≈ 1.98 mM)	1620 (≈ 3.96 mM)	3250 (≈ 7.94 mM)	1120 ± 20.6				
CCC(=O)Oc1ccc(C2NC(=S)N(C)C(C)=C2C(=O)OC)cc1OC (stereo not shown) [4e]	1620 (≈ 4.28 mM)	1620 (≈ 4.28 mM)	1620 (≈ 4.28 mM)	1620 (≈ 4.28 mM)	200 (≈ 0.528 mM)	128 ± 3.2	> 200		197 ± 3.93	149 ± 5.74	1620 (≈ 4.28 mM)		3250 (≈ 8.59 mM)	3250 (≈ 8.59 mM)	3250 (≈ 8.59 mM)	674.8 ± 5.65	no inhibitory effect			
COC(=O)C1=C(C)N(C)C(=S)NC1c1cc(Br)c(O)c(OC)c1 (stereo not shown) [4a]	1620 (≈ 4.04 mM)	1620 (≈ 4.04 mM)	1620 (≈ 4.04 mM)	1620 (≈ 4.04 mM)	400 (≈ 0.997 mM)	187 ± 4.66	144 ± 8.29		97.4 ± 5.4	79 ± 7.49	1620 (≈ 4.04 mM)	810 (≈ 2.02 mM)	1620 (≈ 4.04 mM)	1620 (≈ 4.04 mM)	3250 (≈ 8.1 mM)	313 ± 7.73				
N.N.[Cl][Pt][Cl] [cisPt, reference compound]																		14.7 ± 0.36	4.91 ± 0.74	6.89 ± 0.21
